Results taken from the NIST ThermoML archive (doi:10.1021/je400783h).

Details: for surface tension liquid-gas: Drop volume; for viscosity / speed of sound / mass density / vapor or sublimation pressure: Liquid; for viscosity: Capillary tube (Ostwald / Ubbelohde) method; for speed of sound: Pulse-echo method; for vapor or sublimation pressure: Ebulliometric method (Recirculating still)

OCC1CCCO1 (stereo not given) [2-tetrahydrofurylmethanol]
Details | surface tension liquid-gas [mN/m] | vapor or sublimation pressure [kPa]
278.15 K | 39.54 | –
280.65 K | 39.29 | –
283.15 K | 39.03 | –
285.65 K | 38.78 | –
288.15 K | 38.53 | –
290.65 K | 38.27 | –
293.15 K | 38.02 | –
295.65 K | 37.77 | –
298.15 K | 37.51 | –
300.65 K | 37.26 | –
303.15 K | 37.01 | 0.09
305.65 K | 36.75 | –
308.15 K | 36.5 | 0.15
310.65 K | 36.25 | –
313.15 K | 35.99 | –

Details | mass density [kg/m3] | speed of sound [m/s] | viscosity [mPa·s]
278.15 K, 101.33 kPa | – | 1556.4 | 10.39
280.65 K, 101.33 kPa | – | 1547.6 | 9.487
283.15 K, 100 kPa | 1062.84 | – | –
283.15 K, 101.33 kPa | – | 1538.6 | 8.684
283.15 K, 2500 kPa | 1064.37 | – | –
283.15 K, 5000 kPa | 1065.68 | – | –
283.15 K, 7500 kPa | 1066.97 | – | –
283.15 K, 10000 kPa | 1068.24 | – | –
283.15 K, 20000 kPa | 1073.16 | – | –
283.15 K, 30000 kPa | 1077.84 | – | –
283.15 K, 40000 kPa | 1082.28 | – | –
283.15 K, 50000 kPa | 1086.55 | – | –
283.15 K, 60000 kPa | 1090.57 | – | –
285.65 K, 101.33 kPa | – | 1529.7 | 7.971
288.15 K, 100 kPa | 1058.59 | – | –
288.15 K, 101.33 kPa | – | 1520.8 | 7.335
288.15 K, 2500 kPa | 1060.15 | – | –
288.15 K, 5000 kPa | 1061.47 | – | –
288.15 K, 7500 kPa | 1062.8 | – | –
288.15 K, 10000 kPa | 1064.09 | – | –
288.15 K, 20000 kPa | 1069.11 | – | –
288.15 K, 30000 kPa | 1073.88 | – | –
288.15 K, 40000 kPa | 1078.41 | – | –
288.15 K, 50000 kPa | 1082.72 | – | –
288.15 K, 60000 kPa | 1086.83 | – | –
290.65 K, 101.33 kPa | – | 1511.8 | 6.765
293.15 K, 100 kPa | 1054.34 | – | –
293.15 K, 101.33 kPa | – | 1503 | 6.254
293.15 K, 2500 kPa | 1055.94 | – | –
293.15 K, 5000 kPa | 1057.3 | – | –
293.15 K, 7500 kPa | 1058.64 | – | –
293.15 K, 10000 kPa | 1060 | – | –
293.15 K, 20000 kPa | 1065.1 | – | –
293.15 K, 30000 kPa | 1069.97 | – | –
293.15 K, 40000 kPa | 1074.62 | – | –
293.15 K, 50000 kPa | 1078.97 | – | –
293.15 K, 60000 kPa | 1083.18 | – | –
295.65 K, 101.33 kPa | – | 1494.2 | 5.795
298.15 K, 100 kPa | 1050.06 | – | –
298.15 K, 101.33 kPa | – | 1485.3 | 5.381
298.15 K, 2500 kPa | 1051.72 | – | –
298.15 K, 5000 kPa | 1053.11 | – | –
298.15 K, 7500 kPa | 1054.48 | – | –
298.15 K, 10000 kPa | 1055.84 | – | –
298.15 K, 20000 kPa | 1061.08 | – | –
298.15 K, 30000 kPa | 1066.04 | – | –
298.15 K, 40000 kPa | 1070.75 | – | –
298.15 K, 50000 kPa | 1075.22 | – | –
298.15 K, 60000 kPa | 1079.49 | – | –
300.65 K, 101.33 kPa | – | 1476.5 | 5.006
303.15 K, 100 kPa | 1045.78 | – | –
303.15 K, 101.33 kPa | – | 1467.8 | 4.667
303.15 K, 2500 kPa | 1047.47 | – | –
303.15 K, 5000 kPa | 1048.9 | – | –
303.15 K, 7500 kPa | 1050.31 | – | –
303.15 K, 10000 kPa | 1051.69 | – | –
303.15 K, 20000 kPa | 1057.06 | – | –
303.15 K, 30000 kPa | 1062.11 | – | –
303.15 K, 40000 kPa | 1066.94 | – | –
303.15 K, 50000 kPa | 1071.49 | – | –
303.15 K, 60000 kPa | 1075.79 | – | –
305.65 K, 101.33 kPa | – | 1459 | 4.359
308.15 K, 100 kPa | 1041.48 | – | –
308.15 K, 101.33 kPa | – | 1450.3 | 4.078
308.15 K, 2500 kPa | 1043.19 | – | –
308.15 K, 5000 kPa | 1044.66 | – | –
308.15 K, 7500 kPa | 1046.09 | – | –
308.15 K, 10000 kPa | 1047.48 | – | –
308.15 K, 20000 kPa | 1052.96 | – | –
308.15 K, 30000 kPa | 1058.12 | – | –
308.15 K, 40000 kPa | 1063.05 | – | –
308.15 K, 50000 kPa | 1067.61 | – | –
308.15 K, 60000 kPa | 1072.09 | – | –
310.65 K, 101.33 kPa | – | 1441.6 | 3.822
313.15 K, 100 kPa | 1037.17 | – | –
313.15 K, 101.33 kPa | – | 1432.8 | 3.588
313.15 K, 2500 kPa | 1038.92 | – | –
313.15 K, 5000 kPa | 1040.41 | – | –

101.33 kPa, Vibrating tube method
Details | mass density [kg/m3]
278.15 K | 1067.07
280.65 K | 1064.96
283.15 K | 1062.84
285.65 K | 1060.72
288.15 K | 1058.59
290.65 K | 1056.47
293.15 K | 1054.34
295.65 K | 1052.2
298.15 K | 1050.06
300.65 K | 1047.92
303.15 K | 1045.78
305.65 K | 1043.63
308.15 K | 1041.48
310.65 K | 1039.33
313.15 K | 1037.17
